From PubChem BioAssay AID200 (DTP/NCI, 2004)
Several values for one entry are separate records, joined by “and”; a condition that tells them apart may be missing. Equal entries are not always repeated. Toxic doses and inconclusive results are not listed. *1 amine or outer side, *2 acyl side, *3 side chain or, on linkers, in order; H or OH if unused. Where a SMILES comes first, the peptide text is derived from it. Bridges are numbered along the chain shown (N, C = ends). Roman numbers before positions name the chains, in order. [ ]: non-standard residue; d: D form. Actinocin(1to9) = Cc1c2oc3c(C)ccc(C(=O)[*:2])c3nc-2c(C(=O)[*:1])c(N)c1=O; X1 = COC(=O)CCN(CC(=O)[*:2])[*:1]; NMeA = CN[CH](C)C(=O)O

System: B6C3F1 mice, B16 melanoma ip, median survival T/C
Test: NCI In Vivo Anticancer Drug Screen. Data for tumor model B16 Melanoma (intraperitoneal) in B6C3F1 mice
Details: endpoint: median survival time, higher = longer survival
Summary of the method: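 Mice bearing transplanted tumor were dosed with compound or vehicle, and survival was recorded. Activity is expressed as the treated-group measurement (T) divided by the vehicle control measurement (C).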

[1] = dose: 25.0 mg/kg/injection, schedule: Q01DX009 (ip), vehicle: saline with Tween-80
[2] = dose: 50.0 mg/kg/injection, schedule: Q01DX009 (ip), vehicle: saline with Tween-80
[3] = dose: 12.5 mg/kg/injection, schedule: Q01DX009 (ip), vehicle: saline

With CCC(C)C(O)C(C)C(=O)C(C)/C=C(\C)CC(C)C1OC(=O)C1CC (configuration not stated) the T/C (dose: 0.25 mg/kg/injection, schedule: Q01DX009 (ip), vehicle: saline + alcohol) was 104 % of control, the T/C (dose: 0.5 mg/kg/injection, schedule: Q01DX009 (ip), vehicle: saline + alcohol) was 98 % of control and 104 % of control and the T/C (dose: 1.0 mg/kg/injection, schedule: Q01DX009 (ip), vehicle: saline + alcohol) was 109 % of control and 100 % of control. The T/C (dose: 2.0 mg/kg/injection, schedule: Q01DX009 (ip), vehicle: saline + alcohol) was 98 % of control and 103 % of control.
In the case of Nc1ccc2ccc(O)cc2c1, the T/C [1] is reported as 104 % of control, the T/C [2] is reported as 97 % of control and the T/C (dose: 100.0 mg/kg/injection, schedule: Q01DX009 (ip), vehicle: saline with Tween-80) is reported as 105 % of control.
In the case of C(=C\c1nc2ccccc2[nH]1)/c1nc2ccccc2[nH]1, the T/C [1] is reported as 96 % of control, the T/C [2] is reported as 98 % of control and the T/C (dose: 200.0 mg/kg/injection, schedule: Q01DX009 (ip), vehicle: saline with Tween-80) is reported as 87 % of control.
With CC1OC(=O)C(C(C)C)NC(=O)C(C(C)C)OC(=O)C(C(C)C)NC(=O)C(C)OC(=O)C(C(C)C)NC(=O)C(C(C)C)OC(=O)C(C(C)C)NC(=O)C(C)OC(=O)C(C(C)C)NC(=O)C(C(C)C)OC(=O)C(C(C)C)NC1=O (configuration not stated) the T/C (dose: 0.75 mg/kg/injection, schedule: Q01DX009 (oral), vehicle: Klucel (hydroxypropylcellulose) (HPC)) was 104 % of control, the T/C (dose: 1.5 mg/kg/injection, schedule: Q01DX009 (oral), vehicle: Klucel (hydroxypropylcellulose) (HPC)) was 104 % of control and the T/C (dose: 3.0 mg/kg/injection, schedule: Q01DX009 (oral), vehicle: Klucel (hydroxypropylcellulose) (HPC)) was 105 % of control. For the same molecule, the T/C (dose: 6.0 mg/kg/injection, schedule: Q01DX009 (oral), vehicle: Klucel (hydroxypropylcellulose) (HPC)) was 100 % of control, the T/C (dose: 12.0 mg/kg/injection, schedule: Q01DX009 (oral), vehicle: Klucel (hydroxypropylcellulose) (HPC)) was 105 % of control and the T/C (dose: 24.0 mg/kg/injection, schedule: Q01DX009 (oral), vehicle: Klucel (hydroxypropylcellulose) (HPC)) was 104 % of control.
For CCN1/C(=C/C=C/C=C\C=C\c2sc3ccc4ccccc4c3[n+]2CC)Sc2ccc3ccccc3c21, the T/C (dose: 1.25 mg/kg/injection, schedule: Q01DX009 (ip), vehicle: saline with Tween-80) was 101 % of control, the T/C (dose: 1.25 mg/kg/injection, schedule: Q01DX009 (ip), vehicle: saline) was 124 % of control and the T/C (dose: 2.5 mg/kg/injection, schedule: Q01DX009 (ip), vehicle: saline with Tween-80) was 94 % of control. The T/C (dose: 2.5 mg/kg/injection, schedule: Q01DX009 (ip), vehicle: saline) was 123 % of control.
In the case of CC(C)(C)OC(=O)NC(CCCCNC(=O)OCc1ccccc1)C(=O)O (configuration not stated), the T/C (dose: 25.0 mg/kg/injection, schedule: Q01DX009 (ip), vehicle: distilled water + Tween-80 + alcohol) is reported as 111 % of control and the T/C (dose: 50.0 mg/kg/injection, schedule: Q01DX009 (ip), vehicle: distilled water + Tween-80 + alcohol) is reported as 96 % of control.
CCN(CC)CCOC(=O)Cc1cccc2c(=O)cc(-c3ccccc3)oc12 was tested, and the T/C [3] was 97 % of control and 103 % of control, the T/C (dose: 25.0 mg/kg/injection, schedule: Q01DX009 (ip), vehicle: saline) was 115 % of control and 101 % of control and the T/C (dose: 50.0 mg/kg/injection, schedule: Q01DX009 (ip), vehicle: saline) was 109 % of control and 99 % of control.
In the case of C=CC(=O)N1CN(C(=O)C=C)CN(C(=O)C=C)C1, the T/C (dose: 0.78 mg/kg/injection, schedule: Q01DX009 (ip), vehicle: saline with Tween-80) is reported as 99 % of control, the T/C (dose: 1.56 mg/kg/injection, schedule: Q01DX009 (ip), vehicle: saline with Tween-80) is reported as 100 % of control and the T/C (dose: 3.12 mg/kg/injection, schedule: Q01DX009 (ip), vehicle: saline with Tween-80) is reported as 100 % of control. The T/C (dose: 6.25 mg/kg/injection, schedule: Q01DX009 (ip), vehicle: saline with Tween-80) was 106 % of control and the T/C (dose: 12.5 mg/kg/injection, schedule: Q01DX009 (ip), vehicle: saline with Tween-80) was 86 % of control.
NC(CSC(c1ccccc1)(c1ccccc1)c1ccccc1)C(=O)O (configuration not stated) was tested, and the T/C (dose: 4.0 mg/kg/injection, schedule: Q01DX009 (ip), vehicle: Klucel (hydroxypropylcellulose) (HPC)) was 120 % of control and the T/C (dose: 16.0 mg/kg/injection, schedule: Q01DX009 (ip), vehicle: Klucel (hydroxypropylcellulose) (HPC)) was 124 % of control.
With COc1cc(NCc2ccc3nc(N)nc(N)c3c2C)cc(OC)c1OC the T/C (dose: 2.5 mg/kg/injection, schedule: Q01DX009 (ip), vehicle: sodium bicarbonate) was 110 % of control, the T/C (dose: 5.0 mg/kg/injection, schedule: Q01DX009 (ip), vehicle: sodium bicarbonate) was 118 % of control and the T/C (dose: 6.25 mg/kg/injection, schedule: Q01DX009 (ip), vehicle: water) was 108 % of control. For the same molecule, the T/C (dose: 10.0 mg/kg/injection, schedule: Q01DX009 (ip), vehicle: sodium bicarbonate) was 123 % of control, the T/C (dose: 12.5 mg/kg/injection, schedule: Q01DX009 (ip), vehicle: water) was 114 % of control and the T/C (dose: 25.0 mg/kg/injection, schedule: Q01DX009 (ip), vehicle: water) was 121 % of control.
In the case of COC(=O)CCN1CC(=O)N(C)C(C)C(=O)OC(C)C(NC(=O)c2c3nc4c(C(=O)NC5C(=O)NC(C(C)C)C(=O)N6CCCC6C(=O)N(CCC(=O)OC)CC(=O)N(C)C(C)C(=O)OC5C)ccc(C)c4oc-3c(C)c(=O)c2N)C(=O)NC(C(C)C)C(=O)N2CCCC2C1=O (configuration not stated) (I: TVP[X1][NMeA] / II: TVP[X1][NMeA]; ester I:1-I:C, II:1-II:C; linker I:N-II:N via Actinocin(1to9); configuration not given here), the T/C (dose: 0.25 mg/kg/injection, schedule: Q04DX003 (ip), vehicle: saline + alcohol) is reported as 109 % of control, the T/C (dose: 0.5 mg/kg/injection, schedule: Q04DX003 (ip), vehicle: saline + alcohol) is reported as 105 % of control and the T/C (dose: 1.0 mg/kg/injection, schedule: Q04DX003 (ip), vehicle: saline + alcohol) is reported as 98 % of control and 104 % of control. The T/C (dose: 2.0 mg/kg/injection, schedule: Q04DX003 (ip), vehicle: saline + alcohol) was 118 % of control and 102 % of control, the T/C (dose: 4.0 mg/kg/injection, schedule: Q04DX003 (ip), vehicle: saline + alcohol) was 114 % of control and the T/C (dose: 8.0 mg/kg/injection, schedule: Q04DX003 (ip), vehicle: saline + alcohol) was 121 % of control.
For O=c1n(CC2CO2)c(=O)n(CC2CO2)n1CC1CO1 (configuration not stated), the T/C (dose: 3.0 mg/kg/injection, schedule: Q01DX009 (ip), vehicle: saline) was 172 % of control, the T/C (dose: 6.0 mg/kg/injection, schedule: Q01DX009 (ip), vehicle: saline) was 212 % of control and the T/C (dose: 6.25 mg/kg/injection, schedule: Q01DX009 (ip), vehicle: saline) was 183 % of control. For the same molecule, the T/C (dose: 12.0 mg/kg/injection, schedule: Q01DX009 (ip), vehicle: saline) was 300 % of control and the T/C [3] was 198 % of control.
CCOc1cc2c(cc1C(C)c1ccc(OC)cc1)OCO2 (configuration not stated) was tested, and the T/C (dose: 12.5 mg/kg/injection, schedule: Q01DX009 (ip), vehicle: distilled water + alcohol) was 116 % of control, the T/C (dose: 25.0 mg/kg/injection, schedule: Q01DX009 (ip), vehicle: distilled water + alcohol) was 113 % of control and the T/C (dose: 50.0 mg/kg/injection, schedule: Q01DX009 (ip), vehicle: distilled water + alcohol) was 102 % of control. For the same molecule, the T/C (dose: 100.0 mg/kg/injection, schedule: Q01DX009 (ip), vehicle: distilled water + alcohol) was 98 % of control and the T/C (dose: 200.0 mg/kg/injection, schedule: Q01DX009 (ip), vehicle: distilled water + alcohol) was 108 % of control.
CN(C)CCCN1c2ccccc2Sc2ccc(Cl)cc21 was tested, and the T/C (dose: 4.68 mg/kg/injection, schedule: Q01DX009 (ip), vehicle: saline) was 92 % of control, the T/C (dose: 9.37 mg/kg/injection, schedule: Q01DX009 (ip), vehicle: saline) was 104 % of control and the T/C (dose: 18.75 mg/kg/injection, schedule: Q01DX009 (ip), vehicle: saline) was 105 % of control.
CCC/C(=N/NC(N)=O)C(OC)OC was tested, and the T/C (dose: 37.5 mg/kg/injection, schedule: Q01DX009 (ip), vehicle: saline) was 110 % of control, the T/C (dose: 75.0 mg/kg/injection, schedule: Q01DX009 (ip), vehicle: saline) was 98 % of control and the T/C (dose: 150.0 mg/kg/injection, schedule: Q01DX009 (ip), vehicle: saline) was 106 % of control.
For O=C1c2ccccc2C(=O)c2c3c(cc(NCCNCCO)c21)N(CCO)CCN3, the T/C (dose: 25.0 mg/kg/injection, schedule: Q01DX009 (ip), vehicle: DMSO) was 108 % of control, the T/C (dose: 50.0 mg/kg/injection, schedule: Q01DX009 (ip), vehicle: DMSO) was 112 % of control and the T/C (dose: 100.0 mg/kg/injection, schedule: Q01DX009 (ip), vehicle: DMSO) was 167 % of control.
In the case of CCCC1C/C=C/C=C/C=C/C=C/C(OC2OC(C)C(O)C(N)C2O)CC(O)C(C(=O)O)C(O)CC(=O)CC(O)CCCC(=O)CC(O)C(CC)C(=O)O1 (configuration not stated), the T/C (dose: 2.5 mg/kg/injection, schedule: Q01DX009 (ip), vehicle: Klucel (hydroxypropylcellulose) (HPC)) is reported as 114 % of control, the T/C (dose: 5.0 mg/kg/injection, schedule: Q01DX009 (ip), vehicle: Klucel (hydroxypropylcellulose) (HPC)) is reported as 106 % of control and the T/C (dose: 10.0 mg/kg/injection, schedule: Q01DX009 (ip), vehicle: Klucel (hydroxypropylcellulose) (HPC)) is reported as 104 % of control. For the same molecule, the T/C (dose: 20.0 mg/kg/injection, schedule: Q01DX009 (ip), vehicle: Klucel (hydroxypropylcellulose) (HPC)) was 89 % of control.
